Patent US7417175B2, “Interstitial prostatism model animal” (Taiho Pharmaceuticals Co., Ltd., priority 2001, dated 2008)

Assays:
[1] = system: rat fetal urogenital sinus-derived tissues implanted beneath the prostatic capsules; assay: Inhibition of weight increase of rat fetal urogenital sinus-derived tissue implanted beneath the prostatic capsule of rats (prostatic stromal hyperplasia model); format: in vivo, male SD rats
From the text: Under ether anesthesia, fetuses were removed from female SD rats that were 20 days pregnant. From the removed fetuses, the urogenital sinuses were removed under ether anesthesia while observing through a stereoscopic microscope. The urogenital sinuses were stored in a sterilized culture medium until implantation. The prostate glands were exposed by midline incision using 6-week old male SD rats under ether anesthesia. The capsule of prostate right ventral lobe was slightly cut open while observing through a stereoscopic microscope. Two of the fetal urogenital sinuses obtained in (1) above were implanted using a forceps beneath the capsule, and the incision in the capsule was sutured. The cut abdominal skin then closed and the rats were reared for 2 to 8 weeks in normal rearing cages (Rat Bracket Cages, 3 to 4 rats/cage) under the following conditions: • Temperature: 20 to 26° C. • Humidity: 30 to 70% • Lighting hours: 12-hour light-dark cycle; light-on at 8 am and light-out at 8 pm • Feed and feeding method: solid feed for mouse, MF (irradiated), ad libitum • Water and watering method: tap water, ad libitum (3) Weighing of Implanted Tissue (Rat Fetal Urogenital Sinus-derived Tissue) Animal models for prostatic stromal hyperplasia of the present invention were prepared according to the methods described in Examples 2 (1) and (2) by implanting the urogenital sinuses of rat fetuses (20 days of intrauterine life) beneath the capsules of prostate ventral lobes of 6-week-old male SD rats. […] The rate inhibition to weight increase of the rat fetal urogenital sinus-derived tissues implanted beneath the prostatic capsules was calculated according to the formula shown in Equation 1 above, and the effects of the therapeutic agent on benign prostatic hyperplasia (chlormadinone acetate) were then evaluated. • Experiment (2): Animal models for prostatic stromal hyperplasia prepared as above were reared under the conditions described in Example 2 (2) for 3 weeks (until day 21) from the implantation day (day 0). […]

[2] = system: subcutaneously-implanted, rat fetal urogenital sinus-derived tissues; assay: Inhibition of weight increase of rat fetal urogenital sinus-derived tissue implanted subcutaneously in nude mice (prostatic stromal hyperplasia model); format: in vivo, male nude mice (BALB/cA Jcl-nu); conditions: for Rate of inhibition (%) to weight increase of implanted tissue: tissue weighed day 14, vs solvent group
From the text: Under ether anesthesia, fetuses were removed from female SD rats that were 21 days pregnant. From the removed male fetuses, urogenital sinuses were removed also under ether anesthesia while observing through a stereoscopic microscope. The urogenital sinuses were stored in a sterilized culture medium until implantation. The abdominal skin adjacent the left femoral region of 6-week old BALB/c male nude mice was cut open about 2 to 3 mm under ether anesthesia. A single rat fetal urogenital sinus obtained in (1) above was subcutaneously implanted after incision using a forceps and the incision was sutured. Thereafter, these nude mice were reared in clean racks (Rat Bracket Cages, 3 to 4 mice/cage) for 2 weeks under the following conditions: • Temperature: 20 to 26° C. • Humidity: 30 to 70% • Lighting hours: 12-hour light-dark cycle; light-on at 8 am and light-out at 8 pm • Feed and feeding method: solid feed for mouse, MF (irradiated), ad libitum • Water and watering method: tap water, ad libitum (3) Weighing of Implanted Tissue (Rat Fetal Urogenital Sinus-derived Tissue) Animal models for prostatic stromal hyperplasia of the invention were prepared according to the methods described in Example 1 (1) and (2) by implanting the urogenital sinuses of rat fetuses (21 day-old) beneath the abdominal skin of 6-week-old male nude mice (BALB/cA Jcl-nu). For 2 weeks from the implantation day (day 0), a known therapeutic agent for benign prostatic hyperplasia, i.e., chlormadinone acetate (anti-androgen agent: 6-chloro-3,20-dioxopregna-4,6-dien-17,alpha-yl acetate; suspended or dissolved in 0.5% hydroxypropylmethyl cellulose (0.5% HPMC) solvent) was forcedly administered orally once a day (3 test substance-administered groups: 30 mg/kg·day, 100 mg/kg·day, 300 mg/kg·day; n=10 mice/group). Two weeks after the beginning of administration (day 14), the model animals were sacrificed by over anesthesia, and the implanted tissues (rat fetal urogenital sinus-derived tissues) were removed and weighed (weights from the test substance-administered groups). As a control experiment, for 2 weeks after implantation, model animals (solvent-administered group: n=10 mice) were forcedly administered with a solvent (0.5% HPMC), no chlormadinone acetate dissolved therein, once a day orally. […] The inhibition rate to weight increase of the subcutaneously-implanted, rat fetal urogenital sinus-derived tissues was calculated according to the formula shown in Equation 1, with respect to each chlormadinone acetate-administered group, and the effects of the therapeutic agent for benign prostatic hyperplasia (chlormadinone acetate) upon these tissues were then evaluated. […]

CC(=O)O[C@]1(C(C)=O)CC[C@H]2[C@@H]3C=C(Cl)C4=CC(=O)CC[C@]4(C)[C@H]3CC[C@@]21C [chlormadinone acetate, 6-chloro-3,20-dioxopregna-4,6-dien-17,alpha-yl acetate]
Rate of inhibition (%) to weight increase of implanted tissue ([1]; Experiment (1): 10 mg/kg·day orally for 3 weeks from implantation date, tissue weighed day 21): 30.7%
Rate of inhibition (%) to weight increase of implanted tissue ([1]; Experiment (2): 10 mg/kg·day orally for 3 weeks from 3 weeks after implantation (day 21 to day 42), tissue weighed day 42): 67.0%
Effect on tissue weight increase (in words) ([1]; Experiments (1) and (2), 10 mg/kg·day oral, implant beneath prostatic capsule of rats): significantly inhibits the tissue weight increase
Rate of inhibition (%) to weight increase of implanted tissue ([2]; 30 mg/kg·day orally once a day for 2 weeks from implantation day): 21.8%
Rate of inhibition (%) to weight increase of implanted tissue ([2]; 100 mg/kg·day orally once a day for 2 weeks from implantation day): 39.5%
Rate of inhibition (%) to weight increase of implanted tissue ([2]; 300 mg/kg·day orally once a day for 2 weeks from implantation day): 38.8%
Effect on tissue weight increase (in words) ([2]; oral, 2 weeks of rearing after implantation, subcutaneous implant in nude mice): significantly inhibits the tissues weight increase
